Literature values as cited in patent US5300300A, “Controlled release gastroresistant pharmaceutical formulations for oral administration containing bile acids and their salts” (Alfa Wassermann S.p.A., priority 1991, dated 1994).

Assays:
[1] = complete solubilization takes place only at this pH

Compound: C[C@H](CCC(=O)O)[C@H]1CC[C@H]2[C@@H]3[C@@H](O)C[C@@H]4C[C@H](O)CC[C@]4(C)[C@H]3CC[C@]12C [ursodeoxycholic acid]
- pH of complete solubilization [1]: 8.47 pH
- dissolution in the intestine (after having crossed the stomach unabsorbed and undissolved): dissolve very slowly in the intestine
- intestinal pH needed for complete solubilization and absorption (intestinal pH, completely solubilized and absorbed only when exceeded): > 8.4 pH
